Experiments:
[1] = test system: intestinal transit of the charcoal; assay: Vegetable carbon (charcoal) intestinal transit test in vivo; design: species or system rat; conditions: i.v., rat, charcoal test, 2 hours; for ED50: Rattus norvegicus, iv, 2 h, read-out: Antisp. activity in transit test: ED50
Experimental: B. The vegetable carbon method in vivo (charcoal method) which consists of administering by oral means to rats, which have fasted for 24 hours, 0.3ml/per rate of a mixture consisting of: 10g of charcoal and 5 g of gum arabic suspended in a volume of 100 cc of H2 O as well as at the same time the substance being studied, accordingly as desired, generally i.v., s.c., oral. After two hours the animals are killed and those are taken to be negative in which the charcoal has reached the first portion of the colon and the others positive, in the sense that the substance administered has slowed down the intestinal transit of the charcoal.
In effect the animals treated with a physiological solution (checks) are all negative after two hours.
D. I.T.1 is the therapeutic index under the profile of the antispastic activity in vivo, and it is obtained by recording the DL50 (column 2) with the ED50 of the charcoal test (column 3).

rat = assay: Acute toxicity (DL50) i.v. in rat; assay type: in vivo; conditions: dose causing death in 50% of the animals
Experimental: (§1) In this table (n. 1) there are recorded the compounds described in the examples with their relative serial numbers, the acute toxicity, the antispastic activity observed in two experimental tests, one "in vivo" and one "in vitro". There are moreover recorded two therapeutic indices which take account of the toxicity of these compounds in relation to their in vivo and in vitro activity. More precisely:
(§2) A. DL50 which, as is known, is the quantity of the substance expressed in mg/kg of animal weight, capable of causing death in 50% of the animals treated.

[2] = test system: ileum of a cavy (BaCl2 spasm); assay: Antispastic activity in vitro, Magnus method, cavy ileum stimulated with BaCl2; assay type: cell-based; conditions: ratio to papaverine = 1; Table 1; 37°
Experimental: C. The method in vitro is that of Magnus, with the ileum of the cavy, and is in common use for all evaluations. It consists of extracting the ileum from the cavy and placing it in a receptacle which contains nutritive liquid, suitably oxygenated, and registering the movements of the organ which remains alive for several hours if maintained at a temperature of 37°. According to the traditional method followed by us, BaCl2 is put into the bath as a spasmisant: the reaction is a violent contraction of the organ. This contraction can be prevented by adding beforehand pharmaceuticals which inhibit spasms, and in this case our compounds.
The values recorded are expressed as relation between papaverine and the ED50 of our compounds. (As is known, the ED50 is the dose which results in a 50% reduction in spastic contraction).
E. I.T.2 is the therapeutic index under the profile of the antispastic activity in vitro and is given by the product between the in vitro antispastic activity index (column 4) and the corresponding DL50 (column 2).

[3] = Acute toxicity (DL50) i.v. in rat; assay type: in vivo; conditions: in vivo, iv, dose causing death in 50% of the animals
Experimental: as §1, §2

urinary bladder of a rat = assay: Urinary bladder movement of anaesthetised rat in vivo
Text: The in vivo evaluation was made upon the urinary bladder of a rat anaesthetised and placed in an environment heated to the animals body temperature whilst the bladder which is exposed is linked to a system which registers its movement. The pharmaceutilcals were given to the animals by intravenous means.

Compound | Antisp. activity in transit test: ED50 [1] | DL50 in a rat (rat) | Antisp. activity in vitro on the ileum of a cavy by Stim. BaCl2: ED50 pap./ED50 CR [2] | Antisp. activity in transit test: ED50 ([1]; 120 min) | ED50 [1] | LD50 [3] | Urinary sac of rat in vivo ED50 (urinary bladder of a rat; intravenous, anaesthetised rat) | activity in the urinary tract tests (urinary bladder of a rat; statement on the bladder and ureter tests of Table 3)
CCCCCCNC(=O)C(Cc1ccc(OCCN2CCCC2)cc1)NC(=O)c1ccc(C)cc1 (racemic) [CR 826, 0-(2-pyrrolidil-N'-ethyl)-N-toluoyl-DL-tyrosil-n-hexylamide] | 17.0 mg/kg | 41 mg/kg | 1.2 |  |  |  |  | 
CCCN(CCC)C(=O)C(Cc1ccc(OCCCN(C)C)cc1)NC(=O)c1ccccc1 (racemic) [CR 607, O-(3-dimethylamino-propyl)-N-benzoyl-DL-tyrosil-di-n-propylamide] |  | 32.4 mg/kg | 0.41 | 26.7 mg/kg |  |  |  | 
CCCN(CCC)C(=O)C(Cc1ccc(OCCN(C)C)cc1)NC(=O)c1ccc(C)cc1 (racemic) [CR 615, O-(2-dimethylamino-ethyl)-N-toluoyl-DL-tyrosil-di-n-propylamide] | inactive | 48.1 mg/kg | 0.69 |  |  |  |  | 
CCCN(CCC)C(=O)C(Cc1ccc(OCCN2CCCC2)cc1)NC(=O)c1ccc(C)cc1 (racemic) [CR 650, O-(2-pyrrolidil-N'-ethyl)-N-toluoyl-DL-tyrosil-di-n-propylamide] | 18.4 mg/kg | 17.5 mg/kg | 1.17 |  |  |  |  | 
O-(2-diisopropylamino-ethyl)-N-toluoyl-DL-tyrosil-n-butylamide [CR 709] | 36.1 mg/kg | 40 mg/kg |  |  |  |  |  | 
CCCN(CCC)C(=O)C(Cc1ccc(OCCN(CC)CC)cc1)NC(=O)c1ccc(C)cc1 (racemic) [CR 807, O-(2-diethylamino-ethyl)-N-toluoyl-DL-tyrosil-di-n-propylamide] | 21 mg/kg | 31.5 mg/kg | 0.34 |  |  |  |  | 
CCCCNC(=O)C(Cc1ccc(OCCN2CCCC2)cc1)NC(=O)c1ccc(Cl)cc1 (racemic) [CR 812, O-(2'-pyrrolidil-N'-ethyl)-N-(p-chloro-benzoyl)-DL-tyrosil-n-butylamide] |  |  | 1.03 |  | 21 mg/kg | 27 mg/kg |  | 
CCCCNC(=O)C(Cc1ccc(OCCN(CC)CC)cc1)NC(=O)c1ccc(Cl)cc1 (racemic) [CR 729, O-(2-diethylamino-ethyl)-N-(p-chloro-benzoyl)-DL-tyrosil-n-butylamide] |  |  | 2.45 |  | 23 mg/kg | 38.6 mg/kg |  | 
CCNC(=O)C(Cc1ccc(OCCN(C(C)C)C(C)C)cc1)NC(=O)c1ccccc1 (racemic) [CR 711, O-(2-diisopropylamino-ethyl)-N-benzoyl-DL-tyrosil-ethylamide] | inactive |  | 0.42 |  |  | 82 mg/kg |  | 
CCCCNC(=O)C(Cc1ccc(OCCN2CCN(C)CC2)cc1)NC(=O)c1ccc(Cl)cc1 (racemic) [CR 730, O-[2-(N"-methyl-piperazine)-N'-ethyl]-N-(p-chloro-benzoyl)-DL-tyrosil-n-butylamide] |  |  | 0.99 |  | 30.2 mg/kg | 50 mg/kg |  | 
CCCN(CCC)C(=O)C(Cc1ccc(OCCN(CC)CC)cc1)NC(=O)OCc1ccccc1 [CR 627, O-(2-diethylamino-ethyl)-N-carbobenzoxy-D-tyrosil-di-n-propylamide] |  | 34.0 mg/kg | 1.44 | 20.8 mg/kg |  |  |  | 
CCCN(CCC)C(=O)C(Cc1ccc(OCCN(C(C)C)C(C)C)cc1)NC(=O)c1ccccc1 (racemic) [CR 624, O-(2-di-isopropylamino-ethyl)-N-benzoyl-DL-tyrosil-di-n-propylamide] | inactive |  | 1.12 |  |  | 24.4 mg/kg |  | 
CCCCN(CCCC)C(=O)C(Cc1ccc(OCCCN2CCN(C)CC2)cc1)NC(=O)c1ccccc1Cl (racemic) [CR 731, O-[3-(N"-methyl-piperazine)-N'-propyl]-N-(o-chloro-benzoyl)-DL-tyrosil-di-n-butylamide] | 39.4 mg/kg | 61 mg/kg | 1.75 |  |  |  |  | 
CCCN(CCC)C(=O)C(Cc1ccc(OCCN2CCCC2)cc1)NC(=O)c1ccccc1 (racemic) [CR 625, O-(2-pyrrolidil-N'-ethyl)-N-benzoyl-DL-tyrosil-di-n-propylamide] |  |  | 0.52 |  | 21.1 mg/kg | 32.6 mg/kg |  | 
CCCN(CCC)C(=O)C(Cc1ccc(OCCN(CC)CC)cc1)NC(=O)c1ccccc1 [CR 804, O-(2-diethylamino-ethyl)-N-benzoyl-L-tyrosil-di-n-propylamide] |  |  | 0.89 |  | 16.1 mg/kg | 33.5 mg/kg |  | 
O-(3-pyrrolidil-N'-propyl)-N-toluoyl-DL-tyrosil-n-butylamide [CR 797] | 12.0 mg/kg | 20.6 mg/kg | 1.32 |  |  |  |  | 
CCCN(CCC)C(=O)C(Cc1ccc(OCCN(CC)CC)cc1)NC(=O)c1ccc(C)c(C)c1 (racemic) [CR 632, O-(2-diethylamino-ethyl)-N-(3,4-di-methyl-benzoyl)-DL-tyrosil-di-n-propylamide] |  |  | 0.40 |  | 26 mg/kg | 38.1 mg/kg |  | 
CCCN(CCC)C(=O)C(Cc1ccc(OCCN(CC)CC)cc1)NC(=O)c1ccc(C(F)(F)F)cc1 (racemic) [CR 635, O-(2-diethylamino-ethyl)-N-[p-(trifluoro-methyl)-benzoyl]-DL-tyrosil-di-n-p ropylamide] |  |  | 0.95 |  | 25.6 mg/kg | 38.7 mg/kg |  | 
CCCN(CCC)C(=O)C(Cc1ccc(OCCN2CCN(C)CC2)cc1)NC(=O)c1ccc(Cl)cc1 (racemic) [CR 733, O-[2'-(N"-methyl-piperazine)-N'-ethyl]-N-(p-chloro-benzoyl)-DL-tyrosil-di-n-propylamide] |  |  | 1.31 |  | 16.7 mg/kg | 43.5 mg/kg |  | 
CCCN(CCC)C(=O)C(Cc1ccc(OCCN(CC)CC)cc1)NC(=O)OCc1ccccc1 (racemic) [CR 832, O-(2-diethylamino-ethyl)-N-carbobenzoxy-DL-tyrosil-di-n-propylamide] |  |  | 1.40 |  | 16.3 mg/kg | 32.4 mg/kg |  | 
CCCN(CCC)C(=O)C(Cc1ccc(OCCN(CC)CC)cc1)NC(=O)OCc1ccccc1 [CR 830, O-(2-diethylamino-ethyl)-N-carbobenzoxy-L-tyrosil-di-n-propylamide] |  |  | 1.49 |  | 17.3 mg/kg | 31.5 mg/kg |  | 
CCCCNC(=O)C(Cc1ccc(OCCCN2CCN(C)CC2)cc1)NC(=O)c1ccccc1 (racemic) [CR 702, O-[3-(N"-methyl-piperazine)-N'-propyl]-N-benzoyl-DL-tyrosil-n-butylamide] |  |  | 0.11 |  | 62.5 mg/kg | 81.4 mg/kg |  | 
CCCN(CCC)C(=O)C(Cc1ccc(OCCN(C(C)C)C(C)C)cc1)NC(=O)c1ccc(Cl)cc1 (racemic) [CR 727, O-(2'-di-isopropylamino-ethyl)-N-(p-chloro-benzoyl)-DL-tyrosil-di-n-propylamide] |  |  | 1.52 |  | 24.9 mg/kg | 26.3 mg/kg |  | 
CCCC[N+]1(C)C2CC(OC(=O)C(CO)c3ccccc3)CC1C1OC12 (stereo not shown) [Joscina-N-butyl-bromide] |  |  |  |  |  |  | inactive | inactive
CCCN(CCC)C(=O)C(Cc1ccc(OCCCN2CCN(CCO)CC2)cc1)NC(=O)c1ccccc1 (racemic) [CR 609, O-[3-(N"-hydroxyethyl-piperazine)-N'-propyl]-N-benzoyl-DL-tyrosil-di-n-propylamide] |  |  | 0.68 |  | 50.5 mg/kg | 139 mg/kg |  | 

Source: patent publication US4004008A, “O-Tertiary amino-alkyl-N-benzoyl tyrosil amides” (priority 1974, dated 1977)
